Experimental data from patent publication US20240156800A1, “EP300 DEGRADER AND USES THEREOF IN NEUROBLASTOMA” (DANA-FARBER CANCER INSTITUTE, INC., priority 2021, published 2024).
“Also recorded” adds a separate entry of the source.

What was measured:
[1] = tested on: super-enhancer regulated and CRC genes; experiment: ERCC spike-in RNA-seq of xenograft tumor cells; format: in vivo, human
Text: For in vivo analyses, tumors were removed from animals treated with either vehicle […] to filtering for single cells through a […] filter. Single cell suspensions were then solubilized in TRIzol™ (Ambion) as described above, with processing, including ERCC RNA spike in controls, treatment with RNAse-free DNAse I, and spin purification. Following preparation, there was sufficient material to proceed with RNAseq analysis for four vehicle control and three JQAD1 treated tumor specimen. Purified RNA samples were subjected to library construction with a low input RNA protocol followed by poly-adenylation preparation and sequencing using the Illumina NextSeq® 500 (paired end, 75 bp reads). Raw reads for RNA-seq of in vivo models were aligned first using hisat2 v2.1 in paired-end mode against the mm9 revision of the mouse genome to filter out contaminating mouse reads. Remaining reads were aligned to a reference genome containing the hg19 revision of the human reference and the sequences of ERCC spike-in probes. Expression was quantified using sorted BAMs, a gene reference built using ERCC sizes and RefSeq genes downloaded Jul. 15, 2017, and htseq-count with parameters -I gene_id -stranded=reverse -f bam -m intersection-strict. Read counts were converted to transcripts per million (TPM) and used for cell number-normalization. […]

[2] = tested on: Kelly, NGP and BE2C NB cells; experiment: Propidium iodide DNA flow cytometry (cell cycle, sub-G1); format: cell-based, human; details: Kelly and NGP cells
Experimental: Cells were infected with lentiviruses encoding single guide RNAs (sgRNAs) or treated with compounds as described for the noted length of time. Cells were then liberated from adhesion to the plate using a sterile spatula (Coming®) followed by centrifugation, aspiration of media, and resuspension in hypotonic citrate-propidium iodide (PI) solution for 30 minutes at 37° C. (Tate et al. Cytometry 4:211-215 (1983)). Nuclei were stabilized using 5M NaCl prior to analysis on a FACSAria™ II (BD Biosciences). Analysis of cell cycle phases was performed using FlowJo® v10.7 (BD Biosciences).

[3] = Maximum tolerated dose testing, daily IP dosing in CD1 mice; format: in vivo
Experimental: For toxicity studies, four female CD1 mice (Charles River Laboratories) were injected intraperitoneally (IP) with single doses of 10 mg/Kg (R,S)-JQAD1 solubilized in 10% hydroxypropyl β-cyclodextrin (Sigma-Aldrich®) in sterile water. Following injection, blood concentration of (R,S)-JQAD1 was measured by serial measurements of animal serum at time points out to 24 h, by liquid chromatography with tandem mass spectrometry (LC-MS/MS) analysis. Pharmacokinetics were performed at ChemPartner in Shanghai, China, using LC-MS/MS method and pharmacokinetics parameters (Tmax, Cmax, T1/2, AUC, etc.) calculated with WinNonlin® V 6.2 statistics software (Pharsight Corporation) using a noncompartmental model. For maximally tolerated dose (MTD) testing, six female CD1 mice were treated with daily IP doses of (R,S)-JQAD1 at 10, 20, or 40 mg/kg. Animals were monitored for animal weight, grooming and behavior daily without noted effects. […] Animal weights, behavior and grooming were monitored daily, for a total of 21 days. […] Blood samples were obtained by retro-orbital puncture and blood analyzed at the Small Animal Imaging Facility at Beth Israel Deaconess Medical Center (Boston, MA), on a Hemavet® 9500FS (Drew Scientific) for blood counts, creatinine, AST, ALT, ALP, GGTP, and BUN measurements.

[4] = tested on: cleaved caspase-3 and cleaved PARP1; experiment: Western blotting of apoptosis markers; format: cell-based, human; details: Kelly (1 μM) and NGP (2.5 μM) cells, 12-36 h
Experimental: Cells growing in culture were lysed for whole cell lysates as described in Durbin et al. Nat. Genet. 50:1240-1246 (2018) and Wang et al. Nat. Commun. 10:5622 (2019). Nuclear lysates were prepared using the NE-PER® nuclear lysate kit (Thermo Scientific™) according to the manufacturer's protocol. Chromatin lysates were prepared with the total histone extraction kit (Epigentek). Briefly, equivalent amounts of protein were resolved by western blotting using 4-12% Bis-Tris NuPAGE™ gels (Thermo-Fisher Scientific) prior to transfer, and immunoblotting using primary antibodies to: MYCN (1:1000, Cell Signaling Technology®), H3K27ac (1:1000, Abcam), total H3 (1:1000, Cell Signaling Technology®), EP300 (1:1000, Abcam), CBP (1:500, Cell Signaling Technology®), Cas9 (1:1000, Cell Signaling Technology®), cleaved-PARP1 (1:1000, Cell Signaling Technology), cleaved Caspase-3 (1:1000, Cell Signaling Technology®), β-actin (1:1000, Cell Signaling Technology®), GATA3 (1:1000, EMD Millipore™), TFAP2β (1:1000, Cell Signaling Technology®), Vinculin (1:1000, EMD Millipore™), CRBN (1:1000, Cell Signaling Technology®), HAND2 (1:1000, Santa Cruz Biotechnology). Secondary antibodies were horseradish peroxidase (HRP)-conjugated anti-rabbit or anti-mouse (1:5000, Santa Cruz Biotechnology), incubated prior to exposure to enhanced chemiluminescence reagents (GE, Amersham). For immunoprecipitation, equal amounts of protein were diluted in buffer C as described in Mansour et al. Science 346:1373-1377 (2014) and incubated with antibodies covalently conjugated to Dynabeads™ M-270 beads (Thermo-Fisher Scientific) overnight according to the manufacturer's directions. Antibodies used included: H3K27ac, EP300 (Abcam), CBP, TFAP2β (Cell Signaling Technology®), rabbit immunoglobulin G (IgG) (Santa Cruz Biotechnology®). Immunoprecipitated protein was isolated as per the manufacturer's directions and subjected to western blotting, as described above, or mass spectrometry.

With `C[C@H](N(Cc1ccc(F)cc1)C(=O)CN1C(=O)O[C@@]2(CCc3cc(NC(=O)CCCCCCCCCCCNc4ccc5c(c4)C(=O)N(C4CCC(=O)NC4=O)C5=O)ccc32)C1=O)C(F)(F)F` (stereo partly drawn) [JQAD1, 12-((2-(2,6-dioxopiperidin-3-yl)-1,3-dioxoisoindolin-5-yl)amino)-N-((R)-3′-(2-((4-fluorobenzyl)((S)-1,1,1-trifluoropropan-2-yl)amino)-2-oxoethyl)-2′,4′-dioxo-2,3-dihydrospiro[indene-1,5′-oxazolidin]-5-yl)dodecanamide] as the compound, how does the “expression of CRC genes and MYCN in tumors” value ([1]; 40 mg/Kg daily for 14 days) read?
Its value is “among the most downregulated genes”.

And the “RNA expression of super-enhancer versus typical-enhancer regulated genes in tumor cells” value ([1]; 40 mg/Kg once daily, p<0.0001)?
Its value is “preferential downregulation of genes regulated by super-enhancers compared with those regulated by typical enhancers”.

What about the “cell cycle / subG1 effect” value [2] of the same compound?
Its value is “induction of a subG1 peak”.

What about the “tolerability / animal weight” value ([3]; daily IP at increasing doses (10, 20, 40 mg/kg), CD1 mice) of the same compound?
The value was “well tolerated with no signs of animal weight loss; also recorded: no effect on animal weight”.

And the “maximal dosage for single-dose IP administration without evident toxicity” value ([3]; mouse, IP)?
Its value is 40 mg/kg.

And the “apoptosis: cleavage of caspase-3 and PARP1” value [4]?
Its value is “induction of cellular apoptosis marked by cleavage of caspase-3 and PARP1”.
